For orientation: ED50 means the dose at which the effect has come halfway, by size or by number of responders.

We go through 3 compounds from US4971992A, “Carbonate derivatives of eseroline” (priority 1989, dated 1990).

In this experiment the test system is 2-phenyl-1,4-benzoquinone-induced writhing. Put plainly: 2-phenyl-1,4-benzoquinone-induced writhing test in mice (analgesia). It counts as in vivo. As to conditions: Mus musculus, read-out: Inhibition of Writhing ED50. An excerpt:
Compounds of the present invention are useful as analgesic agents due to their ability to alleviate pain in mammals. […] Exptl. Biol. Med. 95, 729 (1957)]. The analgesic activity of some of the compounds expressed in terms of the ED50 values for inhibition of writhing are given in TABLE I.
On the technique in general: An intraperitoneal irritant provokes the stretching counted in writhing tests.

SMILES strings stand for the structures. Like-named read-outs stand apart in the source and are kept apart here.

Turning to `CN1CC[C@@]2(C)c3cc(OC(=O)Oc4ccc(Cl)cc4)ccc3N(C)[C@@H]12.O=C(O)/C=C/C(=O)O` (relative stereo) [4-Chlorophenyl (3aS-cis)-1,2,3,3a,8,8a-hexahydro-1,3a,8-trimethylpyrrolo [2,3-b]indol-5-yl carbonate fumarate], where the note is “sc, subcutaneous”, the ED50 is 0.74 mg/kg.

Regarding `CN1CC[C@@]2(C)c3cc(O)ccc3N(C)[C@@H]12` [eseroline salicylate, reference compound], the ED50 (sc, subcutaneous) stood at 0.52 mg/kg.

As for `CN1CC[C@@]2(C)c3cc(OC(=O)OC(C)(C)C)cc(Br)c3N(C)[C@@H]12` [(3aS-cis)-7-Bromo-1,2,3,3a,8,8a-hexahydro-1,3a,8-trimethylpyrrolo[2,3-b]indol-5-yl t-butyl carbonate sesquifumarate], the ED50 reads like this: (oral) 0.4 mg/kg; (sc, subcutaneous) 0.16 mg/kg.
